Assay results published in US5441956A, “Hydroisoquinoline derivatives” (Smithkline Beecham Farmaceutici S.p.A., priority 1991, dated 1995).
Structures can show the parent of a compound that is named as a salt.

Tests used:
[1] = target: T1, μ opioid receptor (mu sites) (Cavia porcellus, UniProt A0ACM8Q262); assay: Binding to mu sites (3H-DAGO); conditions: guinea pig brain homogenate, 40 min at 25° C.
T1 construct: 3H-DAGO (DAMGO) displacement
Protocol: (§1) Radio receptor binding to delta, mu and kappa sites is performed on fresh guinea pig brain homogenates prepared according to Kosterlitz (1981). Whole brain, without cerebellum is homogenized in 50 mM Tris-buffer and centrifuged at 49,000×g for 10 min.
(§2) The pellet is then resuspended in the s3me buffer, incubated at 37° C. for 45 min. and centrifuged again.
(§3) 1.9 ml of the final homogenate (1:100 in Tris-pH 7.4 0° C.) is used for the binding assay.
Binding to mu sites (Magnan J., 1982)
^3 H-[D-Ala^2, MePhe^4, Gly-Ol^5 ]Enkephalin (^3 H-DAGO), an enkephalin analogue that binds selectively to mu receptor, is added to the biological substrate and incubated at 25° C. for 40 min, filtered through Whatman GF-C filters and washed with ice-cold Tris buffer. The filters are then dried, solubilized in Filtercount and the radioactivity monitored. Non-specific binding is determined in the presence of 10^-6 M naloxone.

[2] = target: T2, κ opioid receptor (kappa sites) (Cavia porcellus, UniProt P41144); assay: Binding to kappa sites (3H-BRL 52537A); conditions: guinea pig brain homogenate, 40 min at 25° C.
T2 construct: performed on fresh guinea pig brain homogenates; from tissue; host or cells: guinea pig whole brain without cerebellum, washed membrane homogenate
T2 sequence (P41144 whole entry): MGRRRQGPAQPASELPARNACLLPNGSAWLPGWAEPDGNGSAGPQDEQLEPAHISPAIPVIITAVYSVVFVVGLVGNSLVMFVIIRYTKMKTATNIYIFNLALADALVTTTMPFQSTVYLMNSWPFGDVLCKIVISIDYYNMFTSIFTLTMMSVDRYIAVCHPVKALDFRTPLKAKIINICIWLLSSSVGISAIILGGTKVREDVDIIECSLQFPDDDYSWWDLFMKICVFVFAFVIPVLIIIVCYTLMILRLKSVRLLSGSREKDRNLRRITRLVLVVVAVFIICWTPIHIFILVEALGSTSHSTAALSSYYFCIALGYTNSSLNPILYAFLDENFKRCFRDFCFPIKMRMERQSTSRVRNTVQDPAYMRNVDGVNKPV
Protocol: as §1, §2, §3
Final homogenate with solutions of the cold ligand and of the labelled ligand is incubated for 40 min. at 25° C., filtered through Whatman GF-C glass filter discs and washed. The radioactivity bound to the filters is counted by liquid scintillation spectrophotometry.

[3] = target: T3, δ opioid receptor (delta sites) (Cavia porcellus, UniProt A0A286XTF2); assay: Binding to delta sites (radioreceptor binding, 3H-DADLE with unlabelled DAGO); conditions: guinea pig brain homogenate, 3H-DADLE + 30 nM DAGO, 40 min at 25° C.
T3 construct: performed on fresh guinea pig brain homogenates; from tissue; host or cells: guinea pig whole brain without cerebellum, washed membrane homogenate
T3 sequence (A0A286XTF2 1-366): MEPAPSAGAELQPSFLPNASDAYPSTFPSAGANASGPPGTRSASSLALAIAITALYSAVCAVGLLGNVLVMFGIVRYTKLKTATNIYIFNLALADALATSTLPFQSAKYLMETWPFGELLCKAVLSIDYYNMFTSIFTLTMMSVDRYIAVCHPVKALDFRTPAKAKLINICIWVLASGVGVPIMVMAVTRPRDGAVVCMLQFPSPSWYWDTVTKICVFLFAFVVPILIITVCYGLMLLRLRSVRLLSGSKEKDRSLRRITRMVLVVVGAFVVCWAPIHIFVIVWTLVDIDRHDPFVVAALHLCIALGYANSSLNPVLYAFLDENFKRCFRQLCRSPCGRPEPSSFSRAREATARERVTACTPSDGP
Protocol: as §1, §2, §3
For binding experiments, ^3 H-DADLE, which binds to mu and delta sites, is used in the presence of 30 nM of unlabelled DAGO to prevent mu binding. A concentration of radioligand near KD is used in the binding assays evaluating compounds of the invention. Non-specific binding is determined by addition of Mr 2266, 2.5 μM. The tubes are incubated for 40 min at 25° C. and bound ligand is separated from free by filtration through Whatman GF-G filters. The level of bound radioactivity on the filters is measured by liquid scintillation after solubilization in filtercount. The equilibrium dissociation constant (KD) and the maximum binding capacity (Bmax) are determined from the analysis of saturation curves, while the inhibition constant (Ki) is determined from the analysis of competition experiments (Hill 1910; Scatchard 1949; Cheng and Prusoff 973; Gillan et al 1980).

[4] = tested on: mice (Male Charles River, Swiss Strain); assay: Antinociception, tail-flick test in mice; assay type: in vivo, mouse; conditions: i.t., 10 min pretreatment
Protocol: The methodology employed is based on that described by D'Amour and Smith, J. Pharmacol. Exp. Ther. 72, 74 (1941).
Male Charles River mice (Swiss Strain) 29-35 g body weight are used.
Animals are allowed food and water ad libitum and are randomized into groups of 10 prior to experimentation.
Test compounds are dissolved in either distilled water or distilled water plus 0.1M AMS and administered by the intrathecal route in a final volume of 5 μl/mouse, according to the method described by Hylden and Wilcox, Eur. J. Pharmacol. 67,313 (1980).
Four hours prior the beginning of experiments, mice are anaesthetized with pentobarbital (80 mg/Kg i.p.) and a caudal cutaneous incision (1 cm) is performed on the back using a disposable 30 gauge 1/2 inch needles mated to a 50 μl luer siringe (Hamilton). The drug are delivered intrathecally between L5 and L6 of spinous process.
Control animals receive […] of the appropriate vehicle alone. Following a pretreatment period of 10 min., the mice are again placed under the heat source and the reaction time redetermined.
Percentage quantal protection is determined as the number of mice in which the reaction time is doubled compared to pretreatment values, expressed as a percentage of the total number of mice in the group.

T1 sequence (A0ACM8Q262 1-400): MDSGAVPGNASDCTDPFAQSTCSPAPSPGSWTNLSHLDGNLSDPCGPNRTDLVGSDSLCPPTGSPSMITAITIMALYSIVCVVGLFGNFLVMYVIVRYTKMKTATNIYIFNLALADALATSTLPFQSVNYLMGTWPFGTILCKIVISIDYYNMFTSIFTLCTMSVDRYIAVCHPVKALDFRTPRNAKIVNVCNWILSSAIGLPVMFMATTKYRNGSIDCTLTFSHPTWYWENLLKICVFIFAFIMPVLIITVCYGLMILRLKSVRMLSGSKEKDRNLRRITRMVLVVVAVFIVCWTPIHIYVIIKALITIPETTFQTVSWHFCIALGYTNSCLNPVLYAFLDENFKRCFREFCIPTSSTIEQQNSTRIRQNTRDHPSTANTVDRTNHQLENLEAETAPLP

| Structure (SMILES) | Ki [1] [nM] | Ki [2] [nM] | Ki [3] [nM] | Antinociception Mouse Tail-Flick ED50 [4] [mg/mouse] |
| --- | --- | --- | --- | --- |
| CN1CC[C@]2(c3cccc(O)c3)Cc3[nH]c4c(Cl)cccc4c3C[C@H]2C1 (relative stereo) [Example 16, 2-Methyl-4aα-(3-hydroxyphenyl)-7-chloro-1,2,3,4,4a,5,11,11aβ-octahydroindolo[2,3-g]isoquinoline] | 568 | > 1000 | 16.4 | – |
| CN1CC[C@]2(c3cccc(O)c3)Cc3[nH]c4ccccc4c3C[C@H]2C1 (relative stereo) [Example 5, 2-Methyl-4aα-(3-hydroxyphenyl)-1,2,3,4,4a,5,11,11aβ-octahydroindolo[2,3-g]isoquinoline hydrochloride] | 309 | > 1000 | 16 | – |
| CN1CC[C@]2(c3cccc(O)c3)Cc3c(c4ccccc4n3C)C[C@H]2C1 (relative stereo) [Example 7, 2,6-Dimethyl-4aα-(3-hydroxyphenyl)-1,2,3,4,4a,5,11,11aβ-octahydroindolo[2,3-g]isoquinoline] | 306 | > 1000 | 33.6 | – |
| CN1CC[C@]2(c3cccc(O)c3)Cc3oc4ccccc4c3C[C@H]2C1 (relative stereo) [Example 10, 2-Methyl-4aα-(3-hydroxyphenyl)-1,2,3,4,4a,5, 11, 11aβ-octahydrobenzofuro[2,3-g]isoquinoline] | 104 | > 1000 | 10.1 | – |
| Cc1ccc2[nH]c3c(c2c1)C[C@H]1CN(C)CC[C@]1(c1cccc(O)c1)C3 (relative stereo) [Example 12, 2,9-Dimethyl-4aα-(3-hydroxyphenyl)-1,2,3,4,4a,5,11,11aβ-octahydroindolo[2,3-g]isoquinoline] | 678 | > 1000 | 61.9 | – |
| CCN1CC[C@]2(c3cccc(O)c3)Cc3[nH]c4ccccc4c3C[C@H]2C1 (relative stereo) [Example 1, 2-ethyl-4aα-(3-hydroxyphenyl)-1,2,3,4,4a,5,11,11aβ-octahydro indolo[2,3-g]isoquinoline hydrochloride] | 2070 | > 1000 | 16.4 | 0.010 |
| CCN1CC[C@]2(c3cccc(O)c3)Cc3[nH]c4ccccc4c3C[C@H]2C1 (single isomer, unassigned) [Example 39, (+)-2-Ethyl-4aα-(3-hydroxyphenyl)-1,2,3,4,4a,5,11,11aβ-octahydroindolo[2,3-g]isoquinoline hydrochloride] | 2260 | > 1000 | 6.24 | – |
